Reference: publication PMC11802874, “The hypolipidemic effect of MI-883, the combined CAR agonist/ PXR antagonist, in diet-induced hypercholesterolemia model” (Nature Communications, 2025)
Where “and” joins values, the source holds several entries; their conditions need not be identical. Equal values may be shown once. Entries after “also recorded” stand apart in the source; their conditions may differ.

Assays:
HepaRG KO CAR cells = test: RT-qPCR mRNA expression in HepaRG KO CAR cells; format: cell-based, human
Source text: HepaRG cells from Biopredic (Rennes, France) were cultivated and differentiated on the 12-well plates. […] Several batches of HepaRG KO CAR (CAR Knockout HepaRG™ Cells, MTOX1012-1VL, RRID:CVCL_B6AA) and PXR Knockout HepaRG™ Cells, MTOX1011-1VL, RRID:CVCL_B6AS) cells have been obtained from Sigma-Aldrich/Merck (Darmstadt, Germany) and cultivated according to the provider’s protocols. […] Experiments with HepaRG KO PXR and HepaRG KO CAR cells have been performed in duplicates at least in two independent experiments.
RT-qPCR was used to examine gene expression in 2D and 3D PHH, HepaRG cells, or in mouse liver or intestine (ileum) samples as we have described before[60]–[62].
All qRT-qPCR experiments including Trizol reagent (Life Technologies) total RNA isolation, reverse-transcription using a random hexaprimer, and the MMLV Reverse Transcriptase Kit (ThermoFisher Scientific) we have described before^19. qPCR was performed using TaqMan Fast Advanced Master Mix with TaqMan probes (ThermoFisher Scientific). […] The delta-delta method was used for gene expression quantification normalized to at least two reference genes. Three technical replicates were used for each reaction considering the MIQE guidelines. Data are presented as fold induction to vehicle-treated cells/animals.

[1] = molecular target: T1, mutant PXR LBD (S208W/S247W/C284W) (Homo sapiens, UniProt O75469, C284W/S208W/S247W); test: CYP3A4 reporter assay with LBP-obstructed mutant PXR in HepG2 cells; format: cell-based; details: HepG2, 24 h
T1 construct: expressed in transfected cells; host or cells: HepG2
T1 sequence (O75469 whole entry S208W/S247W/C284W, the tested form may be a part): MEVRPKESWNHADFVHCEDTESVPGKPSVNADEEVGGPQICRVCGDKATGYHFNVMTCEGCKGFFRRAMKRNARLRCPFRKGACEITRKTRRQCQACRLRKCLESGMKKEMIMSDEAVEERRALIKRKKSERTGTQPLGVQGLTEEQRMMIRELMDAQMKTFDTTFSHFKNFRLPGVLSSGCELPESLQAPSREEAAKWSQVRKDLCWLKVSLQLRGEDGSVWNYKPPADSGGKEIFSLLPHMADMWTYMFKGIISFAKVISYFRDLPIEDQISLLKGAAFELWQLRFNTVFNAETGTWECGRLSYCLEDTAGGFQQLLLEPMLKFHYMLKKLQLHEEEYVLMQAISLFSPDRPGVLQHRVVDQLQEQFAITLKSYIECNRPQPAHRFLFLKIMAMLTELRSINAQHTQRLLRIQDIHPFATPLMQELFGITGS
Source text: The luciferase reporter plasmid was used together with the human wild-type PXR expression vector or with expression vectors with mutated PXR LBD (Fig. 1j).

PXR LBD = molecular target: T2, PXR LBD (Homo sapiens, UniProt O75469); test: TR-FRET PXR LBD competitive binding assay (LanthaScreen); details: recombinant PXR LBD
T2 construct: purchased ThermoFisher Scientific
T2 sequence (O75469 146-433 limits assumed): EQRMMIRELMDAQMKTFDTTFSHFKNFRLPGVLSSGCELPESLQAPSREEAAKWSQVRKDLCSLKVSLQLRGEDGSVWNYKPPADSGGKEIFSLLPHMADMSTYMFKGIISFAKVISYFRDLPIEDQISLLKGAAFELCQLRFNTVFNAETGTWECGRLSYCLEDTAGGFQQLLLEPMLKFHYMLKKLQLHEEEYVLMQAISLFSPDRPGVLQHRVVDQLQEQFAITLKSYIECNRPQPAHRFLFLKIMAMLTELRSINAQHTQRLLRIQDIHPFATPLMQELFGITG
Experimental: The LanthaScreen TR-FRET PXR Competitive Binding Assay (ThermoFisher Scientific, USA) was performed to evaluate interaction with PXR LBD as we described. The assay measures the ability of an evaluated compound to replace the fluorescent PXR ligand from the receptor. The fluorescence was measured using a Synergy 2 Multi-Mode Microplate Reader (BioTek Winooski, VT, USA) (n = 3).

mouse Car = mouse Car (Mus musculus, UniProt O35627); test: Luciferase reporter gene assay mouse Car, HepG2
mouse Car, sequence (O35627 whole entry): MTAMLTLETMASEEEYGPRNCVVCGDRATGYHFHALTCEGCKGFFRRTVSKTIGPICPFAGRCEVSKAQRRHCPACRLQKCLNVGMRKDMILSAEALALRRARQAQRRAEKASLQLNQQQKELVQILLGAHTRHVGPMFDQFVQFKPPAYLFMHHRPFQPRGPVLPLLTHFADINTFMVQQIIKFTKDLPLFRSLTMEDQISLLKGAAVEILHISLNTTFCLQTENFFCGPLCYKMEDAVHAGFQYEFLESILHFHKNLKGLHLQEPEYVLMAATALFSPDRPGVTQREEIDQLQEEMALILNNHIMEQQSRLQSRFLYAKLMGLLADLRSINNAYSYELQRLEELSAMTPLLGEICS
Source text: The luciferase reporter gene assays for FXR, LXRα, LXRβ, THα, GRα, PPARα, PPARδ/β, PPARγ, AhR, VD, ERα, ERβ and mouse Car are described in our recent paper[19]
The mouse Car expression vector pCMV6-mCar (NM_009803) was obtained from OriGene Technologies, Rockville, MD, USA).
Gal4-LBD constructs of tested nuclear receptors have been used together with pGL4.31[luc2P/GAL4UAS/Hygro] luciferase reporter construct and pRL-TK Renilla expression vector (both from Promega, Hercules, USA) in HepG2 cells transfected with Lipofectamine 2000 or 3000 reagents. For GRα and FXR receptors, full-length expression vectors have been used with pGRE-luc or pFXRE-luc luciferase constructs. For the aryl hydrocarbon receptor (AhR), p1A1-luc construct was used with only pRL-TK vector for transfection normalization. A dual reporter assay (Promega, Hercules, USA) was used to analyze both firefly and Renilla luciferase activities.
Gal4-LBD constructs of tested nuclear receptors have been used together with pGL5-luc luciferase reporter construct and pRL-TK Renilla expression vector in HepG2 cells transfected with Lipofectamine 2000 or 3000 reagents. For GRα and FXR receptors, full-length expression vectors have been used with pGRE-luc or pFXRE-luc luciferase constructs. For the aryl hydrocarbon receptor (AhR), p1A1-luc construct was used with only pRL-TK vector for transfection normalization. […] Bars represent means±S.D. (n=3).

[2] = tested on: Salmonella typhimurium TA 98, TA 100, TA 1535, TA 1537; Escherichia coli WP2 uvrA; test: Reverse-mutation Ames test / Bacterial Reverse Mutation Test; details: with and without metabolic activation
Source text: The mutagenic activity of MI-883 was detected using the commercially available Muta-ChromoPlate bacterial strain kit (ebpi, Mississauga, Ontario, Canada), which is a 96-well microplate version of the reverse-mutation Salmonella typhimurium Ames test with S9 rat-liver extract. Salmonella typhimurium tester strains TA 98 (detection of frameshift mutagens) and TA 100 (detection of base-exchange mutations) were used as we described before^1.
Consistently, Bacterial Reverse Mutation Test was performed as a service at Research Institute for Organic Syntheses Inc., (Pardubice, Czech Republic) in Salmonella typhimurium strains TA 98, TA 100, TA 1535, TA 1537, and one indicator Escherichia coli WP2 uvrA strains. The report is available after request.

[3] = tested on: humanized PXR-CAR-CYP3A4/3A7 mice; test: Bile acid analysis in plasma, liver and stool (HFD study); format: in vivo, mouse
Experimental: Materials and reagents and sample preparation have been described in our last paper[63] (see Supplementary, Chapter 12). Concentrations of bile acids in plasma, bile, and feces were determined using the UHPLC-MS method. The bile acids separation was conducted on the ACQUITY UPLC I-Class System (Waters, Milford, MA, USA) using a Triart C18 column (50 mm × 2.1 mm ID, 1.9 µm) from YMC, Japan. The column was maintained at 45 °C and was safeguarded by a disposable CrudCatcher in-line filter (Phenomenex, Torrance, CA, USA). The mobile phase flowed at a rate of 0.35 mL/min and consisted of solvent A (0.5 mmol/L ammonium acetate, 0.001% v/v acetic acid in water) and solvent B (0.5 mmol/L ammonium acetate, 0.001% v/v acetic acid in a 3:1 v/v mixture of methanol and acetonitrile). The gradient program followed this sequence. […] This was succeeded by an isocratic washout with 95% (v/v) solvent B from 9.0 to 10.5 min, followed by equilibration with 40% (v/v) solvent B from 10.5 to 12 min. 2 μL of sample were injected into column. Column effluent was monitored with Xevo TQ-XS triple quadrupole detector operated in positive electrospray mode. Further details can be found in the publication by Uher et al.[72].
The processing of the UHPLC-MS data was performed using TargetLynx software (Waters, Milford, MA, USA). The ratio of an analyte’s peak area and the internal standard was evaluated against a calibration curve, and the concentration for each bile acid was calculated. For further data analysis, the concentrations of individual BAs were summed to calculate the concentration of conjugated, unconjugated, 12-OH, non-12-OH, and total bile acids.
To cover a wide concentration range of bile acids, two sets of plasma aliquots were prepared. The first set, with a volume of 10 μL, was diluted tenfold with MilliQ water. The second set, with a volume of 100 μL, was used without dilution, and the subsequent procedure remained identical for both sets. […]

[4] = Stability in mouse plasma; format: in vitro ADME; details: read-out: Stability in mouse plasma, t1/2
Source text: Plasma protein binding, and stability in human and mouse plasma have been tested as previously described.

Structure (SMILES): NC(=O)c1cc(Cn2cc(-c3c(-c4ccc(Cl)cc4)nc4cc(F)ccn34)nn2)ccc1Cl [MI-883, 2-chloro-5-((4-(2-(4-chlorophenyl)-7-fluoroimidazo[1,2-a]pyridin-3-yl)-1H-1,2,3-triazol-1-yl)methyl)benzamide]
- CYP7A1 mRNA in HepaRG KO CAR cells (HepaRG KO CAR cells): induced
- CYP2B6 mRNA, RT-qPCR, HepaRG KO CAR (Fig. 1f), replicates (HepaRG KO CAR cells; Phenobarbital 500 μM, CITCO 1 μM, MI 883 1 μM, ctrl = 1): 0.55 and 0.6 and 0.76
- inhibition of constitutive activity of LBP-obstructed mutant PXR [1]: failure of MI-883 to inhibit
- IC50 (PXR LBD): 100 ± 20 nM
- NRs assays: mCar (relative to ctrl, replicates) (mouse Car): 1.15 and 1.36 and 1.11
- genotoxicity / mutagenicity [2]: not genotoxic; also recorded: nonmutagenic
- total BA content in the stool after 24 h [3]: significant increase
- total bile acid concentration in plasma and livers [3]: not affected
- βMCA and CDCA in the stool [3]: significant (P < 0.05) increase
- half-life [4]: > 2 h
